Measured values from US20240287078A1, “QUINAZOLINE DERIVATIVES USEFUL AS RAS INHIBITORS” (Redx Pharma PLC, priority 2021, published 2024).

Columns and labels:
KRAS G12D = molecular target: T1, KRAS G12D (Homo sapiens, UniProt P01116, G12D); assay: HTRF nucleotide exchange assay (NEA), KRAS G12D; type: biochemical; details: recombinant human KRAS aa1-188 G12D, 2 nM, 60 min compound incubation, EDA-GTP-DY647P1; for inhibition at 10 µM: 1 h
T1 construct: aa1-188 KRAS WT, HRAS WT, NRAS WT, or KRAS containing the containing the G12D, G13D or Q61H amino acid substitutions
Experimental: (§1) HTRF Nucleotide Exchange Assay Method
(§2) The capacity of compounds to bind KRAS G12D, other KRAS mutants and wildtype RAS isoforms was quantified using a HTRF nucleotide exchange assay. Recombinant human RAS protein (2 nM; aa1-188 KRAS WT, HRAS WT, NRAS WT, or KRAS containing the containing the G12D, G13D or Q61H amino acid substitutions, or 4 nM KRAS; aa1-188 containing the G12V, G12C, G12A or G12S amino acid substitution, an N-terminal 6×His-tag and leader sequence), and 2 nM Europium-labeled anti-6×His antibody were mixed in assay buffer (10 mM HEPES pH7.3, 150 mM NaCl, 5 mM MgCl2, 0.05% BSA, 0.0025% NP-40 and 100 mM KF) with various concentrations of compound in a 384-well plate and a volume of 5 uL. After a 60-minute incubation at room temperature, Sul of 200 nM EDA-GTP-DY647P1 (diluted in assay buffer) was added to the plate. Following 30-minute incubation at room temperature, time-resolved fluorescence was measured on a PerkinElmer Envision plate reader. DMSO (0.3%) and unlabeled GDP (1 μM) or equivalent tool compound were used to generate the Max and Min assay signals, respectively. Data was analysed using a four-parameter logistic model to calculate IC50 values, with at least two independent replicates were performed for each compound.

KRAS WT = molecular target: T2, KRAS WT (Homo sapiens, UniProt P01116); assay: HTRF nucleotide exchange assay (NEA), KRAS WT; type: biochemical; details: recombinant human KRAS WT aa1-188, 2 nM, 60 min compound incubation, EDA-GTP-DY647P1; for inhibition at 10 µM: 1 h
T2 construct: aa1-188 KRAS WT, HRAS WT, NRAS WT
Experimental: as §1, §2

T1 sequence (P01116 1-188 isoform P01116-2 G12D): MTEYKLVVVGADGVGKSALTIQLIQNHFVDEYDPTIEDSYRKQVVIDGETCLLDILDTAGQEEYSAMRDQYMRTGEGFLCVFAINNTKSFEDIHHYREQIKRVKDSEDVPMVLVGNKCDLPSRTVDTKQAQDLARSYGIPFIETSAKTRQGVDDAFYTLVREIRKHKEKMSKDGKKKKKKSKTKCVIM
T2 sequence (P01116 1-188 isoform P01116-2): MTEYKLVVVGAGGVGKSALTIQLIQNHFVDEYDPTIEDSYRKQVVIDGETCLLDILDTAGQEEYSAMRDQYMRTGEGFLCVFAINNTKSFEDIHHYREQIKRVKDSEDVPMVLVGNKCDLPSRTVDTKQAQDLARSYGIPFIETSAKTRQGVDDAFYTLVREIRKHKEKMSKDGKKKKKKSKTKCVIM

Row | inhibition at 10 µM (KRAS G12D) [%] | inhibition at 10 µM (KRAS WT) [%] | IC50 (KRAS G12D) [µM] | IC50 (KRAS WT) [µM] | Structure (SMILES)
1 | 10 to 49 | 10 to 49 | – | – | COc1ccc(C(F)(F)F)cc1-c1ccc2c(N3CCCOCC3)nc(OCC34CCCN3CCC4)nc2c1C [Example 15, 4-[2-(1,2,3,5,6,7-hexahydropyrrolizin-8-ylmethoxy)-7-[2-methoxy-5-(trifluoromethyl)phenyl]-8-methyl-quinazolin-4-yl]-1,4-oxazepane]
2 | 10 to 49 | 10 to 49 | – | – | Cc1c(-c2cccc3cnn(C)c23)ccc2c(N3CCCOCC3)nc(OCC34CCCN3CCC4)nc12 [Example 21, 4-[2-(1,2,3,5,6,7-hexahydropyrrolizin-8-ylmethoxy)-8-methyl-7-(1-methylindazol-7-yl)quinazolin-4-yl]-1,4-oxazepane]
3 | 10 to 49 | 10 to 49 | – | – | Cc1c(-c2c[nH]nc2C(F)(F)F)ccc2c(N3CCCOCC3)nc(OCC34CCCN3CCC4)nc12 [Example 17, 4-[2-(1,2,3,5,6,7-hexahydropyrrolizin-8-ylmethoxy)-8-methyl-7-[3-(trifluoromethyl)-1H-pyrazol-4-yl]quinazolin-4-yl]-1,4-oxazepane]
4 | 10 to 49 | 10 to 49 | – | – | Cc1c(-c2cc(O)cc3ccccc23)ccc2c(N3CCc4[nH]ncc4C3)nc(OCC34CCCN3CCC4)nc12 [Example 10, 4-[2-(1,2,3,5,6,7-hexahydropyrrolizin-8-ylmethoxy)-8-methyl-4-(1,4,6,7-tetrahydropyrazolo[4,3-c]pyridin-5-yl)quinazolin-7-yl]naphthalen-2-ol]
5 | 10 to 49 | 10 to 49 | – | – | Cc1c(-c2n[nH]c3ccccc23)ccc2c(N3CCCOCC3)nc(OCC34CCCN3CCC4)nc12 [Example 20, 4-[2-(1,2,3,5,6,7-hexahydropyrrolizin-8-ylmethoxy)-7-(1H-indazol-3-yl)-8-methyl-quinazolin-4-yl]-1,4-oxazepane]
6 | – | – | 0.1 to 10 | 0.1 to 10 | Cc1c(-c2cccc3sc(N)nc23)ccc2c(N3CCCOCC3)nc(OCC34CCCN3CCC4)nc12 [Example 13, 4-[2-(1,2,3,5,6,7-hexahydropyrrolizin-8-ylmethoxy)-8-methyl-4-(1,4-oxazepan-4yl)quinazolin-7-yl]-1,3-benzothiazol-2-amine]
7 | 10 to 49 | 10 to 49 | – | – | Cc1c(-c2cc(O)cc3ccccc23)ccc2c(N3CCc4cn[nH]c4C3)nc(OCC34CCCN3CCC4)nc12 [Example 11, 4-[2-(1,2,3,5,6,7-hexahydropyrrolizin-8-ylmethoxy)-8-methyl-4-(1,4,5,7-tetrahydropyrazolo[3,4-c]pyridin-6-yl)quinazolin-7-yl]naphthalen-2-ol]
8 | 10 to 49 | – | – | 0.1 to 10 | COc1ccc(Cl)cc1-c1ccc2c(N3CCCOCC3)nc(OCC34CCCN3CCC4)nc2c1C [Example 16, 4-[7-(5-chloro-2-methoxy-phenyl)-2-(1,2,3,5,6,7-hexahydropyrrolizin-8-ylmethoxy)-8-methyl-quinazolin-4-yl]-1,4-oxazepane]
9 | 10 to 49 | 10 to 49 | – | – | Cc1c(-c2nc(N)cc3ccccc23)ccc2c(N3CCCOCC3)nc(OCC34CCCN3CCC4)nc12 [Example 23, 1-[2-(1,2,3,5,6,7-hexahydropyrrolizin-8-ylmethoxy)-8-methyl-4-(1,4-oxazepan-4-yl)quinazolin-7-yl]isoquinolin-3-amine]
10 | 10 to 49 | 10 to 49 | – | – | Cc1ccc2[nH]ncc2c1-c1ccc2c(N3CCCOCC3)nc(OCC34CCCN3CCC4)nc2c1C [Example 18, 4-[2-(1,2,3,5,6,7-hexahydropyrrolizin-8-ylmethoxy)-8-methyl-7-(5-methyl-1H-indazol-4-yl)quinazolin-4-yl]-1,4-oxazepane]
11 | 10 to 49 | 10 to 49 | – | – | Cc1c(-c2ncnc3ccc(C#N)cc23)ccc2c(N3CCCOCC3)nc(OCC34CCCN3CCC4)nc12 [Example 12, 4-[2-(1,2,3,5,6,7-hexahydropyrrolizin-8-ylmethoxy)-8-methyl-4-(1,4-oxazepan-4-yl)quinazolin-7-yl]quinazoline-6-carbonitrile]
